{
  "source": "patent US20190159452A1",
  "about": "“ACTIVE COMPOUND COMBINATIONS COMPRISING A (THIO)CARBOXAMIDE DERIVATIVE AND A FUNGICIDAL COMPOUND” (BAYER CROPSCIENCE AKTIENGESELLSCHAFT, priority 2015, published 2019)",
  "key": {"[1]": {"experiment": "log P by HPLC on a reversed-phase column (C18), EEC Directive 79/831 Annex V.A8", "format": "physicochemical", "settings": "for chromatographic logP: reversed-phase C18 HPLC column, printed after the preparation step, method not restated", "description": "In table 1, the log P values were determined in accordance with EEC Directive 79/831 Annex V.A8 by HPLC (High Performance Liquid Chromatography) on a reversed-phase column (C18), using the method described below:\nTemperature: 40° C.; Mobile phases: 0.1% aqueous formic acid and acetonitrile; linear gradient from 10% acetonitrile to 90% acetonitrile.\nCalibration was carried out using unbranched alkan-2-ones (comprising 3 to 16 carbon atoms) with known log P values (determination of the log P values by the retention times using linear interpolation between two successive alkanones). lambda-max-values were determined using UV-spectra from 200 nm to 400 nm and the peak values of the chromatographic signals."}, "[2]": {"tested_on": "Septoria tritici", "experiment": "in vivo preventive Septoria tritici test (wheat)", "settings": "21 days after inoculation", "excerpt": "(§1) A synergistic effect of fungicides is always present when the fungicidal activity of the active compound combinations exceeds the total of the activities of the active compounds when applied individually. The expected activity for a given combination of two active compounds can be calculated as follows (cf. Colby, S. R., “Calculating Synergistic and Antagonistic Responses of Herbicide Combinations”, Weeds 1967, 15, 20-22): • If • X is the efficacy when active compound A is applied at an application rate of m ppm (or g/ha), • Y is the efficacy when active compound B is applied at an application rate of n ppm (or g/ha), • E is the efficacy when the active compounds A and B are applied at application rates of m and n ppm (or g/ha), respectively, and • then\n(§2) The degree of efficacy, expressed in % is denoted. 0% means an efficacy which corresponds to that of the control while an efficacy of 100% means that no disease is observed.\n(§3) Solvent: 49 parts by weight of N,N-dimethylacetamide\n(§4) Emulsifier: 1 part by weight of alkylaryl polyglycol ether\nTo produce a suitable preparation of active compound, 1 part by weight of active compound or active compound combination is mixed with the stated amounts of solvent and emulsifier, and the concentrate is diluted with water to the desired concentration. […]\nThe test is evaluated 21 days after the inoculation. […]"}, "[3]": {"tested_on": "Puccinia triticina", "experiment": "in vivo preventive Puccinia triticina test (wheat)", "settings": "8 days after inoculation", "excerpt": "as §1, §2, §3, §4\n(§5) To produce a suitable preparation of active compound, 1 part by weight of active compound or active compound combination is mixed with the stated amounts of solvent and emulsifier, and the concentrate is diluted with water to the desired concentration.\n(§6) To test for preventive activity, young plants are sprayed with the preparation of active compound or active compound combination at the stated rate of application.\nAfter the spray coating has been dried, the plants are sprayed with a spore suspension of Puccinia triticina. The plants remain for 48 hours in an incubation cabinet at approximately 20° C. and a relative atmospheric humidity of approximately 100%.\nThe plants are placed in the greenhouse at a temperature of approximately 20° C. and a relative atmospheric humidity of approximately 80%.\n(§7) The test is evaluated 8 days after the inoculation. 0% means an efficacy which corresponds to that of the untreated control, while an efficacy of 100% means that no disease is observed."}, "[4]": {"tested_on": "Blumeria graminis f.sp. hordei", "experiment": "in vivo preventive Blumeria test (barley)", "settings": "7 days after inoculation", "excerpt": "as §1, §2, §3, §4, §5\nTo test for preventive activity, young plants are sprayed with the preparation of active compound or active compound combination at the stated rate of application. After the spray coating has been dried, the plants are dusted with spores of Blumeria graminis f.sp. hordei.\nThe plants are placed in the greenhouse at a temperature of approximately 18° C. and a relative atmospheric humidity of approximately 80% to promote the development of mildew pustules.\nThe test is evaluated 7 days after the inoculation. 0% means an efficacy which corresponds to that of the untreated control, while an efficacy of 100% means that no disease is observed."}, "[5]": {"tested_on": "Pyrenophora teres", "experiment": "in vivo preventive Pyrenophora teres test (barley)", "settings": "8 days after inoculation", "excerpt": "as §1, §2, §3, §4, §5, §6\nAfter the spray coating has been dried, the plants are sprayed with a spore suspension of Pyrenophora teres. The plants remain for 48 hours in an incubation cabinet at approximately 20° C. and a relative atmospheric humidity of approximately 100%. The plants are placed in the greenhouse at a temperature of approximately 20° C. and a relative atmospheric humidity of approximately 80%.\nas §7"}, "[6]": {"tested_on": "Leptosphaeria nodorum", "experiment": "in vitro-test Leptosphaeria nodorum (microtiter plate, growth by extinction at 620 nm)", "format": "cell-based", "settings": "2.5 ppm a.i., 3-5 days incubation", "excerpt": "A synergistic effect of fungicides is always present when the fungicidal activity of the active compound combinations exceeds the total of the activities of the active compounds when applied individually. The expected activity for a given combination of two active compounds can be calculated as follows (cf. Colby, S. R., “Calculating Synergistic and Antagonistic Responses of Herbicide Combinations”, Weeds 1967, 15, 20-22): • If • X is the efficacy when active compound A is applied at an application rate of m ppm (or g/ha), • Y is the efficacy when active compound B is applied at an application rate of n ppm (or g/ha), • E is the efficacy when the active compounds A and B are applied at application rates of m and n ppm (or g/ha), respectively, and • then […]\nThe resulting concentrations of the test compounds or compound combinations in the microtiter wells are such as 50, 10, 2 and 0.4 ppm. […] With the aid of a photometer the extinction in all wells is measured at the wavelength of 620 nm. […]\nAt the end of the incubation time the growth of the test organisms is measured again photometrically at the wavelength of 620 nm. […] 0% efficacy means, the difference between the two extinction values is equal or even higher than of the untreated control, 100% efficacy means, no growth of the test organism is detected"}, "[7]": {"tested_on": "Septoria tritici", "experiment": "in vitro-test Septoria tritici (microtiter plate, growth by extinction at 620 nm)", "format": "cell-based", "excerpt": "as §1\nWells of 96-well microtiter plates are filled with 10 μl of a solution of the test compounds or compound combinations in methanol together with the emulsifier alkylaryl polyglycol ether. Thereafter, the solvent is evaporated in a hood. At the next step, into each well 100 μl of liquid potato dextrose medium is given, that has been amended with an appropriate concentration of spores or mycelium suspension of the test fungus.\nThe resulting concentrations of the test compounds or compound combinations in the microtiter wells are such as 50, 10, 2 and 0.4 ppm. The resulting concentration of the emulsifier in all wells is constantly 300 ppm. With the aid of a photometer the extinction in all wells is measured at the wavelength of 620 nm.\nThe microtiter plates are then transferred for 3-5 days onto a shaker at 20° C. and 85% relative humidity.\nAt the end of the incubation time the growth of the test organisms is measured again photometrically at the wavelength of 620 nm. The difference between the two extinctions values (taken before and after incubation) is proportional to the growth of the test organism. 0% efficacy means, the difference between the two extinction values is equal or even higher than of the untreated control, 100% efficacy means, no growth of the test organism is detected"}, "[8]": {"settings": "Table B1, 30 ppm a.i., wheat, preventive"}, "[9]": {"settings": "0.1 ppm a.i., 3-5 days incubation"}},
  "data": [
    {"molecule": "Cc1ccc(S(=O)(=O)n2cc(F)c(=N)n(C)c2=O)cc1", "note": "[(B1), 5-fluoro-4-imino-3-methyl-1-[(4-methylphenyl)sulfonyl]-3,4-dihydropyrimidin-2(1H)-one]", "values": [
      {"measurement": "chromatographic logP", "setting": "[1]", "result": 1.26},
      {"measurement": "Efficacy in % found", "setting": "[2]; 30 ppm a.i.", "result": 0, "unit": "%"},
      {"measurement": "Efficacy in % found", "setting": "[3]; [8]", "result": 0, "unit": "%"}
    ]},
    {"molecule": "CC(C)C(O)(Cn1cncn1)c1ccc(Oc2ccc(Cl)cc2)cc1C(F)(F)F", "note": "(centres unmarked) [(B2), 2-[4-(4-chlorophenoxy)-2-(trifluoromethyl)phenyl]-3-methyl-1-(1H-1,2,4-triazol-1-yl)butan-2-ol]", "values": [
      {"measurement": "Efficacy in % found", "setting": "[3]; Table B2, 30 ppm a.i.", "result": 0, "unit": "%"},
      {"measurement": "Efficacy in % found", "setting": "[3]; Table B2, 50 ppm a.i.", "result": 10, "unit": "%"},
      {"measurement": "Efficacy in % found", "setting": "[3]; Table B2, 100 ppm a.i.", "result": 30, "unit": "%"},
      {"measurement": "Efficacy in % found", "setting": "[3]; Table B2, 200 ppm a.i.", "result": 40, "unit": "%"},
      {"measurement": "Efficacy in % found", "setting": "[4]; 30 ppm a.i.", "result": 0, "unit": "%"},
      {"measurement": "Efficacy in % found", "setting": "[4]; 50 ppm a.i.", "result": 30, "unit": "%"},
      {"measurement": "Efficacy in % found", "setting": "[4]; 60 ppm a.i.", "result": 60, "unit": "%"},
      {"measurement": "Efficacy in % found", "setting": "[4]; 100 ppm a.i.", "result": 70, "unit": "%"},
      {"measurement": "Efficacy in % found", "setting": "[5]; 50 ppm a.i.", "result": 22, "unit": "%"},
      {"measurement": "Efficacy in % found", "setting": "[5]; 60 ppm a.i.", "result": 44, "unit": "%"},
      {"measurement": "Efficacy in % found", "setting": "[5]; 100 ppm a.i.", "result": 56, "unit": "%"},
      {"measurement": "Efficacy in % found", "setting": "[6]", "result": 1, "unit": "%"},
      {"measurement": "Efficacy in % found", "setting": "[7]; [9]", "result": 0, "unit": "%"},
      {"measurement": "Efficacy in % found", "setting": "[7]; 0.3 ppm a.i.", "result": 6, "unit": "%"},
      {"measurement": "Efficacy in % found", "setting": "[7]; 0.6 ppm a.i.", "result": 0, "unit": "%"}
    ]},
    {"molecule": "Cc1ccc(S(=O)(=O)n2cc(F)c(N)nc2=O)cc1", "note": "[5-fluoro-4-imino-1-(p-tolylsulfonyl)pyrimidin-2-one]", "values": [
      {"measurement": "chromatographic logP", "setting": "[1]", "result": 1.45}
    ]},
    {"molecule": "CC(C)c1ccc(Cl)cc1CN(C(=O)c1c(C(F)F)nn(C)c1F)C1CC1", "note": "[Compound A5, N-(5-chloro-2-isopropylbenzyl)-N-cyclopropyl-3-(difluoromethyl)-5-fluoro-1-methyl-1H-pyrazole-4-carboxamide]", "values": [
      {"measurement": "Efficacy in % found", "setting": "[2]; 10 ppm a.i.", "result": 29, "unit": "%"},
      {"measurement": "Efficacy in % found", "setting": "[3]; [8]", "result": 75, "unit": "%"},
      {"measurement": "Efficacy in % found", "setting": "[3]; Table B2, 5 ppm a.i.", "result": 30, "unit": "%"},
      {"measurement": "Efficacy in % found", "setting": "[3]; Table B2, 10 ppm a.i.", "result": 40, "unit": "%"},
      {"measurement": "Efficacy in % found", "setting": "[3]; Table B2, 20 ppm a.i., wheat, preventive", "result": 70, "unit": "%"},
      {"measurement": "Efficacy in % found", "setting": "[4]; 5 ppm a.i.", "result": 0, "unit": "%"},
      {"measurement": "Efficacy in % found", "setting": "[4]; 10 ppm a.i.", "result": 20, "unit": "%"},
      {"measurement": "Efficacy in % found", "setting": "[4]; 20 ppm a.i., barley, preventive", "result": 40, "unit": "%"},
      {"measurement": "Efficacy in % found", "setting": "[5]; 5 ppm a.i.", "result": 44, "unit": "%"},
      {"measurement": "Efficacy in % found", "setting": "[5]; 10 ppm a.i., barley, preventive", "result": 67, "unit": "%"},
      {"measurement": "Efficacy in % found", "setting": "[6]", "result": 36, "unit": "%"},
      {"measurement": "Efficacy in % found", "setting": "[7]; [9]", "result": 65, "unit": "%"}
    ]},
    {"molecule": "N-cyclopropyl-3-(difluoromethyl)-5-fluoro-N-(2-isopropylbenzyl)-1-methyl-1H-pyrazole-4-carbothio-amide [Compound A20]", "values": [
      {"measurement": "logP", "setting": "[1]", "result": 4.36}
    ]}
  ]
}
